Measured values published in patent US20040132108A1, “Screening methods and agents” (priority 2001, published 2004).
“Also recorded” adds a separate entry of the source.

Key:
[1] = test system: p53-dependent transactivation of the p21 promoter; assay: p21-Luciferase reporter of endogenous p53-dependent transcription in A375 cells; type: cell-based; settings: for basal p53-dependent transactivation of the p21 promoter: cycling A375 cells, transient transfection, p21-Luc / β-Gal
Procedure: Proliferating A375 cells were transiently co-transfected with EGFP-NS, EGFP-BOX-I, EGFP-S15D, EGFP-T18D or EGFP-S20D and control or p21-Luciferase reporter constructs. Changes in the basal p53-dependent transcription activity was quantitated 24 hours post-transfection.
A375 and HCT116 cells both containing a wild-type p53 pathway were maintained in DMEM (Gibco BRL) supplemented with 10% FBS and incubated at 37° C. with an atmosphere of 10% CO2. For transient transfections, 3×10^5 cells were plated out in 6-well dishes and transfected with LipofectAMINE (Gibco BRL). The exact quantity of DNA transfected is indicated in each experiment and where necessary, carrier DNA was incorporated to keep the same quantity of DNA consistent in each transfecton. To monitor transfection efficiency, pCMV-βGal was included in each transfection. Unless otherwise stated, cells were harvested 24 hours post-transfection and lysed in Reporter Lysis Buffer and the corresponding luciferase and β-Gal assay carried out according to the manufacturers protocol (Promega, UK).

[2] = test system: p300 induction of p53-dependent gene expression from the p21 promoter; assay: p53/p300 co-transfected Saos-2 cells, p21-Luc reporter; type: cell-based; settings: for p53-p300 co-stimulated transactivation, p21 promoter: Saos-2 cells co-transfected with p53 and p300, increasing EGFP construct; for p53 protein levels (immunoblot): Saos-2 cells, 1 μg EGFP construct, relative to EGFP-NS control
Procedure: FIG. 3: In vivo inhibition of ectopically expressed p53 from the p21 promoter by phospho-peptide mimetic fusion proteins. (A) Stimulation of p53 activity by cotransfection with p300. Saos-2 cells were transiently co-transfected with 1 μg of pCMV-p53, 2 μg p21-Luc, 1 μg pCMVβ-Gal and increasing amounts of pCMV-βp300. The cells were harvested 30 hours post-transfection and the relative activity is expressed as a ratio of luciferase activity to β-Gal activity (Δ negative control, 0 ng, 1 μg, 2 μg and 5 μg). (B) EGFP-S20D peptide ([…] LPENN) inhibits p300 induction of p53-dependent gene expression. Saos-2 cells were transiently co-transfected with 1 μg pCMV-p53, 2 μg p21-Luc, 5 μg pCMVβp300, 1 μg of pCMVβ-Gal and increasing amounts of EGFP-constructs as indicated. The cells were processed as described in the legend of FIG. 3A (▴ control, control, 1 μg, 2 μg and 5 μg). (C) Immunoblots of p53 and EGFP-fusion proteins in transfected Saos-2 cells. Lysates from transfected Saos-2 cells [as described in FIG. 3B] were normalized for protein content by Bradford and loading for immunoblots was confirmed by Red Ponceau staining. The constructs transfected are highlighted by the legend above the Figure (increasing amounts of EGFP fused to NS, BOX-I, S15D, T18D, and S20D BOX-I domain peptides) and are described below the Figure as a “+”. The levels of p53, EGFP, and p21 proteins are in the top, middle, or bottom panel, respectively. p53-dependent activity (in RLU's) from FIG. 3B is listed underneath the immunoblots for direct comparison of p53 activity to p53 protein and EGFP protein levels.
(§1) A final model used to examine whether the phospho-peptide mimetic peptides inhibit p53 activity involved the use of the p53-null cell line Saos-2 co-transfected with p300, p53, and the indicated reporter or expression vectors (FIG. 3). Transient co-transfection of increasing amounts of p300 with p53 into Saos-2 cells lead to maximal stimulation of p53-dependent gene expression from the p21 promoter (FIG. 3A) or the bax promoter (FIG. 5A).
A375 and Saos-2 cells were maintained in DMEM (Gibco BRL) supplemented with 10% FBS and incubated at 37° C. with an atmosphere of 10% CO2. Transient transfections and ELISAs were carried out as previously described (Dornan and Hupp 2001). Full-length p300 and His-p300 infected Sf9 cells were harvested 72 hours post-infection as described previously (Shikama, Lee et al. 1999; Dornan and Hupp 2001). Sf9 expressed wtp53 and p53ΔProAE tetramers were purified by heparin-sepharose chromatography as described previously (Hupp and Lane 1994). Transfected lysates were run on a 12% SDS-PAGE and transferred to nitrocellulose membrane and even protein loading confirmed by Ponceau S (Sigma) staining. Primary antibodies anti-p53 (DO-1), anti-p21 (Ab-1) (Calbiochem), anti-Bax (N-20) (Santa Cruz Biotechnology Inc.), anti-EGFP (Clontech) were used and the appropriate secondary antibody conjugated to HRP. The signal detected by Enhanced Chemo-luminescence was developed using autoradiography film (Amersham).

[3] = test system: p300 induction of p53-dependent gene expression from the bax promoter; assay: p53/p300 co-transfected Saos-2 cells, bax-Luc reporter; type: cell-based; settings: Saos-2 cells co-transfected with p53 and p300, increasing EGFP construct
Procedure: FIG. 5: In vivo inhibition of ectopically expressed p53 activity from the bax promoter by phospho-peptide mimetic fusion proteins. (A) Stimulation of p53 activity by cotransfection with p300. Saos-2 cells were transiently co-transfected with 1 μg of pCMV-p53, 2 μg bax-Luc, 1 μg pCMVβ-Gal and increasing amounts of pCMV-βp300. The cells were harvested 30 hours post-transfection and the relative activity is expressed as a ratio of luciferase activity to β-Gal activity. (B) EGFP-S20D peptide fusion protein inhibits p300 induction of p53-dependent gene expression. Saos-2 cells were transiently co-transfected with 1 μg pCMV-p53, 2 μg bax-Luc, 5 μg pCMVβp300, 1 μg of pCMVβ-Gal and increasing amounts of EGFP-S20D or EGFP-control. Cells were harvested 30 hours post-transfection and relative activity is expressed as a ratio of luciferase activity to β-Gal activity ( ? control, 0 μg, 1 μg, 2 μg and 5 μg).
as §1
A375 and Saos-2 cells were maintained in DMEM (Gibco BRL) supplemented with 10% FBS and incubated at 37° C. with an atmosphere of 10% CO2. Transient transfections and ELISAs were carried out as previously described (Dornan and Hupp 2001). Full-length p300 and His-p300 infected Sf9 cells were harvested 72 hours post-infection as described previously (Shikama, Lee et al. 1999; Dornan and Hupp 2001). Sf9 expressed wtp53 and p53ΔProAE tetramers were purified by heparin-sepharose chromatography as described previously (Hupp and Lane 1994). […] The signal detected by Enhanced Chemo-luminescence was developed using autoradiography film (Amersham).

HCT116 (p53^+/+) cells = assay: Cell cycle profile by FACS in HCT116 p53+/+ cells; type: cell-based; settings: 5 μg EGFP construct, CD20-selected cells, propidium iodide
Excerpt: To address this issue, we co-transfected EGFP-NS, EGFP-BOXI, EGFP-S20D or EGFP-PRO with pCMV-CD20 cell surface marker into HCT116 (p53^+/+) cells, selected the transfected population using a FITC-conjugated CD20 antibody, sorted them by FACS and the resultant cell cycle profile of the transfected population determined by propidium iodide staining of DNA. The amount of EGFP-peptide construct and levels of EGFP protein produced were identical to those used in transcription assays (FIG. 10 and data not shown), so a direct correlation can be made between the reduction in transcription by the EGFP-S20D or EGFP-PRO peptides and changes in cell-cycle parameters. […] The MDM2-binding peptides have been well-documented to have a positive affect on […] dependent transcription (Bottger, Bottger et al. 1996).
(§2) To select the transfected cell population, cells were co-transfected with 3 μg pCMV-CD20 and incubated for 24 hours before washing and detaching cells in PBS/5 mM EDTA. Cells were then harvested and resuspended in serum free media with FITC-conjugated anti-CD20 (Becton Dickinson) and incubating for 30 minutes on ice. Cells were then washed twice with PBS/1% FBS and resuspended in 100 μl PBS before adding 900 μl ice-cold ethanol dropwise. After incubation at 4° C. for >2 hours cells were stained with Pi (40 μg/ml) and treated with RNAse (100 μg/ml). Transfected cells were gated using the FL1 channel and PI staining detected with the FL2 channel and the resultant cell cycle profiles of 2000 cells were analysed using a FACScan and CellQuest software (Becton Dickinson).

full-length p300 protein = biological target: T1, full-length p300 protein (Homo sapiens, UniProt Q09472); assay: ELISA binding of full-length p300 to biotinylated peptides; settings: biotinylated peptide titrated onto streptavidin-coated wells
T1 construct: Full-length p300 and p300(1135-2414) baculovirus were a gift from N. B. La Thangue; made in house; host or cells: Sf9 insect cells (baculovirus)
Procedure: Microtitre wells were coated with 100 ng of streptavidin and incubated overnight at room temperature. To prevent non-specific binding, 100 μl of 3% BSA, PBS, 01% Tween 20 was added and incubated for 1 hour at 4° C. Wells were washed 3 times with 180 μl PBSM 0.1% Tween 20 and biotinylated peptides, resuspended in 50 μl/well of 3% BSA, PBS, 0.1% Tween 20/NaF/Beta-phosphoglycerate, were incubated for 1 hour at 4° C. Non-specific binding sites were blocked by adding 180 μl 5% milk powder, PBS, 0.1 Tween 20/NaF/Beta-phosphoglycerate for 30 minutes at 4° C. before adding p300 resuspended in 50 ml/well of Sf9LB. Where plant extract was added to p300, the reaction was incubated for 30 minutes before adding to wells. The reaction was the incubated for 1 hour at 4° C. and then the wells were rigorously washed 3 times with 180 μl PBS, 0.1%, Tween 20 before incubating for 1 hour with specific antibodies in 50 μl/well 5% milk powder, PBS, 0.1% Tween 20/NaF/Beta-phosphoglycerate. Wells were given another 3 washes with PBS, 0.1%, Tween 20 to remove unbound antibody and specific binding was detected with secondary antibody (anti-mouse or anti-rabbit) conjugated to horse radish peroxidase (HRP). The binding was detected by ECL and quantified using a luminometer (Fluoroskan Ascent FL).
Plates were rigorously washed 3 times with PBST20 (0.1% v/v) to reduce the non-specific binding. Primary antibodies anti-p300(N-15) (Santa Cruz Biotechnology Inc.), anti-FLAG (Sigma) and anti-Mdm2 (2A10) (Movarian Biotechnologies) were used and the appropriate secondary antibody cross-linked to HRP. The signal detected by Enhanced Chemoluminescence was developed using Fluoroskan Ascent FL.

HCT116 p53^−/− cells = assay: Cell cycle profile by FACS in HCT116 p53-/- cells; type: cell-based; settings: 5 μg EGFP construct, CD20-selected cells, propidium iodide
Procedure: With the arrest in G2/M observed in p53^+/+ cells using the PRO and S20D fusion peptides, it was determined whether the peptides would have any effect on the cell cycle profile in a p53^−/− cell line. Using the same parameters as in the p53^+/+ cell line, the effects on the cell cycle were determined (FIGS. 12B and 12D).
as §2

T1 sequence (Q09472 whole entry): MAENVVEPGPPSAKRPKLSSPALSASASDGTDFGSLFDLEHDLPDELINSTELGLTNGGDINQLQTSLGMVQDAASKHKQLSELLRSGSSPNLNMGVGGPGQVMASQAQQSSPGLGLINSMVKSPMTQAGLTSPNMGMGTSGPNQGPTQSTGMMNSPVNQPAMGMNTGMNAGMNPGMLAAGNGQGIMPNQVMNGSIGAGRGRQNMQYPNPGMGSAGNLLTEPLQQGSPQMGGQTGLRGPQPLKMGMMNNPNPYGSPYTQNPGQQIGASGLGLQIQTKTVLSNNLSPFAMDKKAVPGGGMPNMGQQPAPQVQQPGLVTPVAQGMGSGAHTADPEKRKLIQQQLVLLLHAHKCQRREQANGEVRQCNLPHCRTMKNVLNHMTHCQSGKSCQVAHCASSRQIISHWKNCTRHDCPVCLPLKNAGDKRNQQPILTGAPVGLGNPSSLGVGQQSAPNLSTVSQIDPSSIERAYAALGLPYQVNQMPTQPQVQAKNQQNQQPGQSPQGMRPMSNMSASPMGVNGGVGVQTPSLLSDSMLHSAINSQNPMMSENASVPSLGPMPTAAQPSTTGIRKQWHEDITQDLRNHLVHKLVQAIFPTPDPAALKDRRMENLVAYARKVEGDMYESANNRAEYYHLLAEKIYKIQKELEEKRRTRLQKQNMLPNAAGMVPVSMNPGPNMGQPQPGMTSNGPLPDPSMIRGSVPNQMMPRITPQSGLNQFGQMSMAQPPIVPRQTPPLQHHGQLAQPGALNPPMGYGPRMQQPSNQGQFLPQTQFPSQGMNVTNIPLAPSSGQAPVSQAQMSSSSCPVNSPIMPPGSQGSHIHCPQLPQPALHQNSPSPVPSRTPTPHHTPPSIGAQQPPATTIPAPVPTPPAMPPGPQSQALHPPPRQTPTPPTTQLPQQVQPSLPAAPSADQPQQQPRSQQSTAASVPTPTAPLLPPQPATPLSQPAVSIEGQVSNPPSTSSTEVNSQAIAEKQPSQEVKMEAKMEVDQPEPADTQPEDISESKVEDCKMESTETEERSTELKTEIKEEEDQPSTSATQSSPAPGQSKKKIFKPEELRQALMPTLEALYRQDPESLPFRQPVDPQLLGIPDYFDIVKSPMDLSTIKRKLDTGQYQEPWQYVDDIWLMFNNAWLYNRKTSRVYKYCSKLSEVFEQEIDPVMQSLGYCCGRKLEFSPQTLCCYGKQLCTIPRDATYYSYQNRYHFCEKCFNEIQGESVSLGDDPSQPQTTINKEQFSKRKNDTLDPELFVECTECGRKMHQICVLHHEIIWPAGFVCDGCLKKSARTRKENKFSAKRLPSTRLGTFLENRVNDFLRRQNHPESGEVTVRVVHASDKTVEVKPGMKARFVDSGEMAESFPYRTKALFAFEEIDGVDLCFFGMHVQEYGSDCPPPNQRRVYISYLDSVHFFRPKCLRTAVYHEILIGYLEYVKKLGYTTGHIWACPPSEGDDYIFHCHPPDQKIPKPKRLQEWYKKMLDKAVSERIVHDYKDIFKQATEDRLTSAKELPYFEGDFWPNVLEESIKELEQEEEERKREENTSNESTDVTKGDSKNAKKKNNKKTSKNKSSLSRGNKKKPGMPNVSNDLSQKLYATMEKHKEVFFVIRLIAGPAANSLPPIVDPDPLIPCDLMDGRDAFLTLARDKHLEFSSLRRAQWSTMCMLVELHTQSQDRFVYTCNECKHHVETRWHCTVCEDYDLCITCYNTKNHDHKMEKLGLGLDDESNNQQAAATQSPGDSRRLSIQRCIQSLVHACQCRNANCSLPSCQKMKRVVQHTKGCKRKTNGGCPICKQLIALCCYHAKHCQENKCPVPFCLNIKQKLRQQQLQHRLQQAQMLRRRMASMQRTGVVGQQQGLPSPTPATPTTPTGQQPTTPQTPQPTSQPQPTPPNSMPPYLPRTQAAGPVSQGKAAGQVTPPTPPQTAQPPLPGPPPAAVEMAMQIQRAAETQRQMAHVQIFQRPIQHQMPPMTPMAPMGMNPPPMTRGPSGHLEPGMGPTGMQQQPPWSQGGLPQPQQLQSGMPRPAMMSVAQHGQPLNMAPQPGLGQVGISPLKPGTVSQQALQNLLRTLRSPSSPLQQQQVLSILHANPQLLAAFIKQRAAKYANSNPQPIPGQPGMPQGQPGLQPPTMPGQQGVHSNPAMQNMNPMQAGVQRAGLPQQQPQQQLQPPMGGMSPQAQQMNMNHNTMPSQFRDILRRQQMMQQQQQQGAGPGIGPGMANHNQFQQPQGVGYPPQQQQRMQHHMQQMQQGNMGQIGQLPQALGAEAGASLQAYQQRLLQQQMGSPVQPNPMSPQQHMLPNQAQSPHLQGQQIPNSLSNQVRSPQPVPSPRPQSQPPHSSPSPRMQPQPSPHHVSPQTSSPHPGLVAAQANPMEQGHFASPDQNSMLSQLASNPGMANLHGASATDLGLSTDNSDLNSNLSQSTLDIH

Row | binding of full-length p300 protein to the peptide (RLU) (full-length p300 protein) | Substance | basal p53-dependent transactivation of the p21 promoter [1] | p53-p300 co-stimulated transactivation, p21 promoter [2] | p53-p300 co-stimulated transactivation, bax promoter [3] | cell cycle effect (G2/M arrest) (HCT116 (p53^+/+) cells) | further results
1 | – | EPPLSQETFSDLWKLLPENN [EGFP-BOX-I] | expected increase in p53-dependent transactivation | stimulated p53 activity | stimulated p53 activity | relatively insignificant role in altering cell-cycle parameters | p53-dependent gene expression in irradiated cells ([1]; A375 cells, ionizing radiation (5 Gy) or UV-C (20 J/m^2), p21-Luc): stimulated p53 activity in the irradiated cell; p53 protein levels (immunoblot) [2]: increased
2 | relatively high affinity | C-terminal end of the SMAD4 polyproline domain: peptide from the Smad-4 proline-rich region (aa 275-303), C-terminal end (PYTPNLPHHQNGHLQHHPPMPPHPGHYWP; UniProt Q13485 275-303, looked up, fragment) | – | – | – | – | –
3 | – | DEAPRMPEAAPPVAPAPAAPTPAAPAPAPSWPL [EGFP-PRO] | inhibit endogenous p53-dependent transcription compared to the EGFP-NS peptide and with the same potency as the EGFP-S20D peptide | striking inhibition of p53-p300 co-stimulation | striking inhibition of p53-p300 co-stimulation | more striking arrest in G2/M phase | cell cycle effect (G2/M arrest) (HCT116 p53^−/− cells): similarly induced a G2/M arrest
4 | – | EPPLSQETFDDLWKL LPENN [EGFP-S20D] | inhibiting p53 activity to the highest degree | inhibited synergism between p53 and p300; also recorded: inhibits transactivation | inhibited synergism between p53 and p300; also recorded: inhibits transactivation | induced a prominent G2/M arrest | p53 protein levels (immunoblot) [2]: increased; cell cycle effect (G2/M arrest) (HCT116 p53^−/− cells): failed to elicit a defined G2/M arrest
5 | did not restore binding activity | p53PRO (69-88): p53 polyproline peptide amino acids 69-88 (AAPPVAPAPAAPTPAAPAPA; UniProt P04637 69-88, looked up, fragment) | – | – | – | – | –
6 | high affinity | p53 polyproline peptide (83-102): p53 polyproline peptide containing amino acids 83-102 (AAPAPAPSWPLSSSVPSQKT; UniProt P04637 83-102, looked up, fragment) | – | – | – | – | –
7 | did not bind p300 | UBF1 (231-246): consensus peptide from UBF1, amino acids 231-246 (GKQWSQLSDKKRLKWI; UniProt P17480 231-246, looked up, fragment) | – | – | – | – | –

Row | Substance | binding of full-length p300 protein to the peptide (RLU) (full-length p300 protein) | basal p53-dependent transactivation of the p21 promoter [1] | p53-p300 co-stimulated transactivation, p21 promoter [2] | p53-p300 co-stimulated transactivation, bax promoter [3] | cell cycle effect (G2/M arrest) (HCT116 (p53^+/+) cells) | further results
8 | UBF1 (321-336): consensus peptide from UBF1, amino acids 321-336 (STERMVLCSQQWKLLS; UniProt P17480 321-336, looked up, fragment) | affinity slightly less than the p53 BOX-I-Ser^20 phospho-peptide | – | – | – | – | –
